Numbers after ± are expanded uncertainties.
Assay: excess molar enthalpy (molar enthalpy of mixing); xn = mol fraction of the nth substance listed
Conditions: 101 kPa, Liquid, Calvet calorimetry

SMILES: CN1CCNCC1 [N-methylpiperazine] + O
- excess molar enthalpy (303.15 K, x1 = 0.0495): -1.99 ± 0.081 kJ/mol
- excess molar enthalpy (303.15 K, x1 = 0.0997): -3.49 ± 0.14 kJ/mol
- excess molar enthalpy (303.15 K, x1 = 0.2004): -4.95 ± 0.2 kJ/mol
- excess molar enthalpy (303.15 K, x1 = 0.3006): -5.37 ± 0.22 kJ/mol
- excess molar enthalpy (303.15 K, x1 = 0.3993): -4.95 ± 0.2 kJ/mol
- excess molar enthalpy (303.15 K, x1 = 0.6): -3.52 ± 0.14 kJ/mol
- excess molar enthalpy (303.15 K, x1 = 0.7973): -1.82 ± 0.074 kJ/mol
- excess molar enthalpy (323.15 K, x1 = 0.3991): -4.7 ± 0.19 kJ/mol
- excess molar enthalpy (323.15 K, x1 = 0.4012): -4.63 ± 0.19 kJ/mol
- excess molar enthalpy (323.15 K, x1 = 0.4193): -4.57 ± 0.19 kJ/mol
- excess molar enthalpy (323.15 K, x1 = 0.4994): -4.11 ± 0.17 kJ/mol
- excess molar enthalpy (323.15 K, x1 = 0.5981): -3.44 ± 0.14 kJ/mol
- excess molar enthalpy (323.15 K, x1 = 0.7019): -2.58 ± 0.11 kJ/mol
- excess molar enthalpy (323.15 K, x1 = 0.8001): -1.76 ± 0.072 kJ/mol
- excess molar enthalpy (323.15 K, x1 = 0.8964): -0.944 ± 0.049 kJ/mol

SMILES: OCCNCCO [diethanolamine] + O
- excess molar enthalpy (298.15 K, x1 = 0.1002): -1.12 ± 0.046 kJ/mol
- excess molar enthalpy (298.15 K, x1 = 0.2057): -1.74 ± 0.071 kJ/mol
- excess molar enthalpy (298.15 K, x1 = 0.2992): -2.03 ± 0.082 kJ/mol
- excess molar enthalpy (298.15 K, x1 = 0.3535): -2.05 ± 0.083 kJ/mol
- excess molar enthalpy (298.15 K, x1 = 0.403): -2.04 ± 0.083 kJ/mol
- excess molar enthalpy (298.15 K, x1 = 0.5035): -1.88 ± 0.076 kJ/mol
- excess molar enthalpy (298.15 K, x1 = 0.6967): -1.27 ± 0.052 kJ/mol
- excess molar enthalpy (298.15 K, x1 = 0.8826): -0.5 ± 0.02 kJ/mol
